According to patent US10111893B2, “Calmangafodipir, a new chemical entity, and other mixed metal complexes, methods of preparation, compositions, and methods of treatment” (priority 2012, dated 2018):
Read-outs that look alike come from different tables or passages of the source.

Key:
[1] = test system: CT26 (mouse colon carcinoma) cells; experiment: MTT viability assay, cytotoxic activity; details: 48 h, 1-1,000 μM
Protocol: The viability of cells was measured using the MTT assay. […] The viability of the cells was then assessed by adding 5 mg/ml methylthiazoletetrazolium (MTT) to a final concentration of 0.5 mg/ml and incubating cells for a further 4 h at 37° C. The blue formazan that is formed by mitochondrial dehydrogenases of viable cells was then dissolved over night at 37° C. by adding 10% SDS and 10 mM HCl to a final concentration of 5% SDS and 5 mM HCl. Finally, the absorbance of the solution was read at 570 nm with a reference at 670 nm in a microplate reader Spectramax 340 (Molecular Devices, Sunnyvale, Calif., USA) connected to an Apple Macintosh computer running the program Softmax Pro V1.2.0 (Molecular Devices, Sunnyvale, Calif., USA).

[2] = test system: white blood cells (WBC), lymphocytes (LYM), neutrophils (NEU); experiment: Myelosuppressive effects of carboplatin in balb/c mice, cytoprotection; assay type: in vivo
Text: A control group received vehicle (saline) and saline instead of carboplatin.

[3] = test system: pig heart; details: pigs; cited from earlier work
[4] = cited from earlier work
[5] = Manganese urine excretion 0-24 h after intravenous injection; details: rats; for Mn recovered in 0-24 h urine: iv 0.25 ml, 2.59 μmol Mn (mangafodipir) or 2.52 μmol Mn (calmangafodipir) injected; for Mn in 0-24 h urine as percentage of the injected dose: iv, basal excretion subtracted
Protocol: To obtain basal content of manganese (Mn) and zinc (Zn) in urine, two additional (control) rats received 0.25 ml saline and were placed in metabolic cages for urine collection over the same period of time. The urine samples were then stored at −80° C. until Mn analysis. Before analysis, the samples were thawed and extensively shaken to obtain homogenous samples. A five ml aliquot was taken from each sample and 5 ml concentrated nitric acid was added. The samples were then resolved in a microwave oven and thereafter diluted with distilled water to a final volume of 50 ml. The Mn content of each sample was analyzed by ICP-MS (Inductively Coupled Plasma Mass Spectrometry). Identical samples of calmangafodipir and mangafodipir as those injected in the rats (i.e., 0.25 ml) were withdrawn and injected into test tubes. These samples were treated in an identical manner to that of the urine samples and analyzed for their Mn content. Results are presented as total 0-24 h urine Mn content (expressed as μmol/kg±S.E.M.) and as percentage (±S.E.M.) of the injected dose. […] A p-value lower than 0.05 was considered as a statistically significant difference.

[6] = test system: CT26 tumors; experiment: Antitumor activity of oxaliplatin with or without calmangafodipir in CT26-bearing immune competent and nude balb/c mice; assay type: in vivo; details: 5 mg/kg calmangafodipir with 10 mg/kg oxaliplatin
Protocol: When the cells reached ˜50% confluency they were harvested by trypsinization. Briefly, cells were washed with PBS (pH 7.3) and exposed to 0.05% Trypsin/0.53 mM EDTA at 37° C. for ˜5 min. The trypsinization was stopped by adding RPMI 1640 culture medium. Cells were counted and centrifuged at 200×g for 5 min. Thereafter, they were washed in PBS, centrifuged again and resuspended in PBS at a concentration of 2×10^6/350 μl for injection into mice. Immune competent balb/c female mice (balb/c) and immune incompetent nude female balb/c mice (blab/c nu/nu) between 6 and 8 weeks of age were used, as described by Laurent et al., 2005. Briefly, each mouse was injected subcutaneously in the back of the neck with 2×10^6 of CT26 cells at day 0. After 7 days (day 7) when the tumors were detectable, the tumor size was determined with a caliper and mice were grouped (5 in each group) so that the sizes of the tumors were not statistically different by group. Groups of mice (5 in each group, as illustrated in FIG. 14) were injected i.v. with saline or 5 mg/kg calmangafodipir (lot #11AK0105B) 30 minutes prior to i.p. administration of 10 mg/kg oxaliplatin (diluted in 5% glucose) or 5% glucose. Mice received in addition saline or 5 mg/kg calmangafodipir 24 hours later (day 8). The mice were sacrificed on day 10 and the tumors were excised and wet weights were determined. The results are presented in a graph for the various treatments (mean±S.E.M.).

[7] = Mn content of brain, pancreas and liver after repeated intravenous injections; details: rats, 39 iv doses, 72 μmol/kg manganese each, 3 times a week for 13 weeks
Protocol: After the 13-week administration period, the rats were sacrificed and the brains and pancreas were dissected out and approximately 0.5 g samples were stored frozen until Mn analysis. The Mn content of each sample was analyzed by ICP-MS. Results are expressed as μg/g wet weight±S.E.M. Statistical difference between the mangafodipir group and the calmangafodipir group, with respect to Mn content, was tested by a paired Student's t-test. A p-value lower than 0.05 was considered as a statistically significant difference.

[8] = Variable humidity XRPD analysis of crystalline forms; assay type: physicochemical; details: 10 mg scale, change of ambient humidity
Text: X-Ray Powder Diffraction (XRPD) is most widely used in the identification and characterization of crystalline solids, each of which produces a distinctive diffraction pattern. Both the positions (corresponding to lattice spacings) and the relative intensity of the lines are indicative of a particular phase and material, providing a “fingerprint” for comparison.

[9] = test system: CT26 tumors; experiment: Antitumor activity of oxaliplatin with or without calmangafodipir in CT26-bearing mice; assay type: in vivo, balb/c mice
Protocol: When the cells reached ˜50% confluency they were harvested by trypsinization. Briefly, cells were washed with phosphate based saline (PBS) (pH 7.3) and exposed to 0.05% Trypsin/0.53 mM EDTA at 37° C. for ˜5 min. The trypsinization was stopped by adding RPMI1640 culture medium. Cells were counted and centrifuged at 200×g for 5 min. Thereafter, they were washed in PBS, centrifuged again and resuspended in PBS at a concentration of 2×10^6/350 μl for injection into mice. Balb/c female mice between 6 and 8 weeks of age were used, as described by Laurent et al., 2005. Briefly, each mouse was injected subcutaneously in the back of the neck with 2×10^6 of CT26 cells at day 0. After 7 days (day 7) when the tumors were detectable, the tumor size was determined with a caliper and mice were grouped (5 in each group) so that the sizes of the tumors were not statistically different by group. Oxaliplatin±calmangafodipir (lot #11AK0105B) was injected and one group of mice received vehicle (0.9% saline+5% glucose) treatment alone. In a first series of experiments, mice were injected i.v. with saline or 50 mg/kg calmangafodipir 30 minutes prior to i.p. administration of 20 mg/kg oxaliplatin (diluted in 5% glucose) or 5% glucose. These mice received in addition saline or 50mg/kg calmangafodipir 24 hours later (day 8). In another series of experiments, mice were injected i.v. with saline or 5 mg/kg calmangafodipir 30 minutes […] (diluted in 5% glucose) or 5% glucose, and saline or 5 mg/kg calmangafodipir 24 hours later (day 8). The mice were killed on day 10 and the tumors were excised and wet weights were determined.

[10] = Exposure of solids at 25° C./60% RH and 40° C./75% RH (water absorption); assay type: physicochemical; details: 7 days at 25° C./60% RH and 40° C./75% RH
Protocol: Furthermore, the preparation of a single active pharmaceutical ingredient reduces the cost of manufacture of a treatment dosage. In addition, the need for dosing of a single material reduces the chance for errors in the formulation of the product.
In a 4:1 ratio approximately 200 mg of calfodipir (CaDPDP) and 50 mg of mangafodipir (MnDPDP) were weighed into a 40 mL vial and dissolved in 40 mL of DI water at room temperature to generate a yellow solution. The yellow aqueous solution was spray dried using a Buchi Mini-Spray Dryer B-290 while attached to the Buchi dehumidifier B-296 as an air conditioner allowing the intake of air from the laboratory. Spray drying optimization experiments were performed at elevated inlet temperatures (220° C.) with varying feed rates (20, 30, 40, 50 and 60%). Recovery of product ranged from 180-230 mg.

[11] = test system: LLC1 NSCLC cells; experiment: MTT viability assay, cytotoxic activity; assay type: cell-based, murine; details: 48 h
Protocol: (§1) The viability of U1810 or LLC1 cells in the presence of increasing concentrations of calmangafodipir or mangafodipir is presented as concentration response curves (mean±S.D.). The individual curves were fitted to the sigmoidal variable slope response logistic equation (Graphpad Prism, version 5.02). From this analysis the concentrations causing 50% inhibition (IC50) of the test substances were calculated.

[12] = test system: human U1810 NSCLC cells; experiment: MTT viability assay, cytotoxic activity; assay type: cell-based; details: for IC50: 48 h, MTT, read-out: IC50 (concentration causing 50% inhibition of viability)
Protocol: as §1

[13] = test system: white blood cells (WBC); experiment: Myelosuppressive effects of oxaliplatin in balb/c mice, cytoprotection
Protocol: One day before (baseline) as well as 3 and 6 days after oxaliplatin treatment 50 μl EDTA blood samples were taken from the orbital venous plexus with a glass capillary. The blood samples were analyzed using the automated system CELL-DYN® Emerald (Abbott Diagnostics) for the content of white blood cells (WBC), lymphocytes (LYM), neutrophils (NEU) and platelets (PLC). […] A control group received instead of oxaliplatin vehicle (5% glucose) and saline. […] The statistical differences between treatment groups, where appropriate, were tested by an unpaired Student's t-test. A p-value lower than 0.05 was considered as a statistically significant difference.

[14] = rats, single 5 μmol/kg b.w., cited from earlier work
[15] = humans, diagnostic MR imaging dose iv; cited from earlier work
[16] = one patient, cited from earlier work
[17] = rats; cited from earlier work

Q: With `[Ca+2].[Cl-].[Cl-]` [CaCl2] as the molecule, how does the cytotoxic activity [1] read?
A: Its cytotoxic activity is “Neither ZnDPDP, ZnPLED nor CaCl2 displayed any cytotoxic activity at all”.

Q: For `N.N.O=C([O-])C1(C(=O)[O-])CCC1.[Pt+2]` [Carboplatin, carboplatin], which “decrease in WBC, as well as in NEU and LYM” value ([2]; carboplatin 125 mg/kg alone, 3 days after) is on record?
A: The value was “approximately 50%”.

Q: Which “protection against ischemia-reperfusion-induced myocardial infarction” value [3] does the source give for `Cc1ncc(CO)c(CN(CCN(CC(=O)O)Cc2c(CO)cnc(C)c2O)CC(=O)O)c1O` [MnPLED, N,N′-dipyridoxyl ethylenediamine-N,N′-diacetic acid] here?
A: The value was “significantly reduced myocardial infarct size”.

Q: What about the “cytotoxic activity relative to mangafodipir” value [1] of the same molecule?
A: Its value is roughly 10 times.

Q: What does the source list for `Cc1ncc(CO)c(CN(CCN(CC(=O)[O-])Cc2c(CO)cnc(C)c2O)CC(=O)[O-])c1O.[Zn+2]` [ZnPLED]?
A: cytotoxic activity [1]: Neither ZnDPDP, ZnPLED nor CaCl2 displayed any cytotoxic activity at all; stability of complex relative to manganese counterpart ([4]; higher stability): 1000 times

Q: For `Cc1ncc(COP(=O)([O-])O)c(CN(CCN(CC(=O)O)Cc2c(COP(=O)([O-])O)cnc(C)c2O)CC(=O)O)c1O.Cc1ncc(COP(=O)([O-])O)c(CN(CCN(CC(=O)O)Cc2c(COP(=O)([O-])O)cnc(C)c2O)CC(=O)O)c1O.Cc1ncc(COP(=O)([O-])O)c(CN(CCN(CC(=O)O)Cc2c(COP(=O)([O-])O)cnc(C)c2O)CC(=O)O)c1O.Cc1ncc(COP(=O)([O-])O)c(CN(CCN(CC(=O)O)Cc2c(COP(=O)([O-])O)cnc(C)c2O)CC(=O)O)c1O.Cc1ncc(COP(=O)([O-])O)c(CN(CCN(CC(=O)O)Cc2c(COP(=O)([O-])O)cnc(C)c2O)CC(=O)O)c1O.[Ca+2].[Ca+2].[Ca+2].[Ca+2].[Mn+2]` [calmangafodipir], which “Mn recovered in 0-24 h urine” value [5] is on record?
A: The value was 1.27 ± 0.07 µmol.

Q: And the “Mn in 0-24 h urine as percentage of the injected dose” value [5]?
A: Its value is 50.5±2.6%.

Q: And the “influence on antitumor effect of oxaliplatin” value (shortened to “influence on antitumor effect”) ([6]; immune competent and immune incompetent mice)?
A: Its value is “did not have any negative influence on the antitumor effect of oxaliplatin”.

Q: And the “mean tumor weight compared to controls” value ([6]; immune competent mice)?
A: Its value is “statistically significantly reduced”.

Q: What about the “mean tumor weight compared to controls” value ([6]; immune deficient mice) of the same molecule?
A: The value was “no such reduction was seen”.

Q: What about the Mn brain content [7] of the same molecule?
A: Its Mn brain content is 0.74±0.01 μg/g w.w.

Q: And the “Mn content in the pancreas” value [7]?
A: Its value is 3.35 ± 0.19 µmol/kg.

Q: And the “time within which form conversions occur” value [8]?
A: The value was no more than 3 h.

Q: And the “cytotoxic activity relative to mangafodipir” value [1]?
A: The value was “about 20 times”.

Q: And the “influence on antitumor effect” value ([9]; 5 mg/kg calmangafodipir iv with 10 mg/kg oxaliplatin)?
A: The value was “statistically significant better antitumor effect”.

Q: And the “influence on antitumor effect” value ([9]; 50 mg/kg calmangafodipir iv with 20 mg/kg oxaliplatin)?
A: The value was “did not have any negative influence on the antitumor effect of oxaliplatin”.

Q: What about the “effect on carboplatin-induced decreases in WBC, NEU and LYM” value ([2]; calmangafodipir 3 mg/kg with carboplatin 125 mg/kg) of the same molecule?
A: Its value is “abolished these decreases”.

Q: And the “shape of dose-response of myeloprotection” value ([2]; calmangafodipir 1, 3, 10 or 30 mg/kg with carboplatin 125 mg/kg)?
A: Its value is “bell shaped appearance”.

Q: What about the “appearance of solid after exposure” value [10] of the same molecule?
A: Its value is “remained a free flowing solid”.

Q: What about the “potency to kill cells compared with mangafodipir” value [11] of the same molecule?
A: The value was “significantly more potent than mangafodipir”.

Q: And the “IC50 ratio between mangafodipir and calmangafodipir (potency relative to mangafodipir)” value [12]?
A: The value was “about 28 times”.

Q: And the IC50 [12]?
A: The IC50 was 22.7 µM.

Q: And the “fall in WBC” value ([13]; 12.5 mg/kg oxaliplatin plus 5 mg/kg calmangafodipir iv 30 min before and 24 h after)?
A: The value was “about 25%”.

Q: Which results are given for `Cc1ncc(COP(=O)(O)O)c(CN(CCN(CC(=O)O)Cc2c(COP(=O)(O)O)cnc(C)c2O)CC(=O)O)c1O` [fodipir, N,N′-bis-(pyridoxal-5-phosphate)-ethylenediamine-N,N′-diacetic acid]?
A: cytotoxic activity relative to mangafodipir [1]: about 20 times; affinity of zinc relative to manganese for the chelator ([4]; higher affinity of zinc): about 1000 times; affinity of calcium relative to manganese for the chelator ([4]; lower affinity of calcium): about 10^6 times; affinity of calcium relative to zinc for the chelator ([4]; lower affinity of calcium): about 10^9 times

Q: Which “Mn recovered in 0-24 h urine” value [5] does the source give for `Cc1ncc(COP(=O)(O)O)c(CN(CCN(CC(=O)O)Cc2c(COP(=O)(O)O)cnc(C)c2O)CC(=O)O)c1O.[Mn]` [mangafodipir, manganese N,N′-bis-(pyridoxal-5-phosphate)-ethylenediamine-N,N′-diacetic acid] here?
A: The value was 0.60 ± 0.04 µmol.

Q: And the “Mn in 0-24 h urine as percentage of the injected dose” value [5]?
A: Its value is 23.1±1.4%.

Q: And the “Mn content in the pancreas” value [7]?
A: The value was 5.54 ± 0.45 µmol/kg.

Q: What about the “Mn content of the pancreas relative to basal value” ([14]; after 2 hours) of the same molecule?
A: The value was “approximately 10 times”.

Q: What about the “Mn content of the pancreas relative to basal value” ([14]; after 24 hours) of the same molecule?
A: The value was “about 5 times”.

Q: What about the “protection against ischemia-reperfusion-induced myocardial infarction” value [3] of the same molecule?
A: The value was “does not protect the pig heart against ischemia-reperfusion-induced myocardial infarction”.

Q: And the administered manganese released [15]?
A: The administered manganese released was “about 80%”.

Q: What about the neurotoxic symptoms ([16]; 14 of 15 cycles with mangafodipir pretreatment, accumulated 1275 mg/m^2 oxaliplatin) of the same molecule?
A: The neurotoxic symptoms was “No neurotoxic symptoms were detected”.

Q: What about the neutropenia ([16]; during chemotherapy cycles) of the same molecule?
A: Its neutropenia is “Neutropenia did not occur”.

Q: And the IC50 [12]?
A: The IC50 was 633 µM.

Q: And the fetal skeletal abnormalities [17]?
A: The fetal skeletal abnormalities was “caused fetal skeletal abnormalities in rats”.

Q: What about the “fall in WBC” value ([13]; 12.5 mg/kg oxaliplatin plus 1 mg/kg mangafodipir iv) of the same molecule?
A: The value was “around 50%”.

Q: And the “fall in WBC” value ([13]; 12.5 mg/kg oxaliplatin plus 10 mg/kg mangafodipir iv)?
A: The value was “around 50%”.

Q: Which results are given for `O=C1[O][Pt]2([NH][C@@H]3CCCC[C@H]3[NH]2)[O]C1=O` [oxaliplatin]?
A: reduction in tumor weight ([9]; single treatment 20 mg/kg oxaliplatin i.p., day 10): more than 50%; fall in WBC ([13]; single dose 12.5 mg/kg oxaliplatin alone, 6 days after): more than 80%
